TGI data for 14 compounds are collected here from PubChem BioAssay (NCI).

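Assay format: 96-well plates, 48-hour exposure. TGI is the concentration that stops growth completely.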

Among the test systems are DU-145 prostate; HCT-116 colon; HCT-15 colon; HOP-92 NSCLC; IGROV1 ovarian; MALME-3M melanoma; MDA-MB-231 breast; MDA-MB-435; OVCAR-8 ovarian; SF-268 CNS.
Test in all cases: NCI anticancer screen, dose series, 48 h

For the compound `COP(=O)(OC)C12CCOCCN1c1ccccc1C2=O` (stereo unspecified), the TGI in the assay on DU-145 prostate, in the assay on HCT-116 colon, in the assay on HCT-15 colon, in the assay with HOP-92 NSCLC, in the assay with IGROV1 ovarian and with MALME-3M melanoma was more than 100 µM each time. In addition, the TGI in the assay on MDA-MB-231 breast, in the assay on MDA-MB-435, in the assay with OVCAR-8 ovarian and with SF-268 CNS was more than 100 µM each time.

As for `O=C1CC(Sc2nc3ccc(I)cc3c(=O)n2Cc2ccccc2)C(=O)NN1` (stereo unspecified), the TGI with DU-145 prostate was 34.8 µM; in the assay on HCT-116 colon, 29.1 µM; with HCT-15 colon, 28.8 µM; in the assay on HOP-92 NSCLC, 37.2 µM; in the assay with IGROV1 ovarian, 25.2 µM; with MALME-3M melanoma, 33.1 µM. Further, the TGI in the assay with MDA-MB-231 breast was found to be 29.3 µM; in the assay on MDA-MB-435 it was 33.9 µM; with OVCAR-8 ovarian it was 28.4 µM; with SF-268 CNS it was 30.1 µM.

Take `CCOC(=O)C(C)c1nc2c(Cl)c3ncccc3cc2[nH]c1=O` (stereo unspecified): the TGI in the assay on DU-145 prostate, in the assay with HCT-116 colon, with HCT-15 colon, in the assay with HOP-92 NSCLC, in the assay with IGROV1 ovarian and with MALME-3M melanoma was more than 100 µM each time. Also, the TGI with MDA-MB-231 breast, in the assay with MDA-MB-435, with OVCAR-8 ovarian and in the assay with SF-268 CNS was more than 100 µM each time.

As for `COC(=O)[C@H](Cc1ccccc1)NC(=O)c1ccc(CNC(=O)/C=C/c2cccc(Oc3ccccc3)c2)cc1`, the TGI in the assay on DU-145 prostate was more than 100 µM; with HCT-116 colon, more than 100 µM; in the assay on HCT-15 colon, more than 100 µM; in the assay with HOP-92 NSCLC it was 21 µM; in the assay with IGROV1 ovarian it was 42.6 µM; in the assay on MALME-3M melanoma it was 30.4 µM. In addition, the TGI in the assay with MDA-MB-231 breast is 48.6 µM; in the assay on MDA-MB-435 it was 28.3 µM; in the assay with OVCAR-8 ovarian it was more than 100 µM; with SF-268 CNS it was 59.3 µM.

For the compound `Cc1cn2c(C)csc2c1P(=O)(OC(C)C)OC(C)C`, the TGI in the assay with DU-145 prostate, with HCT-116 colon, with HCT-15 colon, in the assay with HOP-92 NSCLC, in the assay on IGROV1 ovarian and in the assay on MALME-3M melanoma was more than 100 µM in each case. For the same compound, the TGI in the assay with MDA-MB-231 breast, in the assay on MDA-MB-435, with OVCAR-8 ovarian and in the assay with SF-268 CNS was more than 100 µM in each case.

Take `Cc1cc2nc(-c3cc(C(C)(C)C)c(O)c(C(C)(C)C)c3)[nH]c2cc1C`: the TGI with DU-145 prostate, with HCT-15 colon, with HOP-92 NSCLC, in the assay on IGROV1 ovarian, with MALME-3M melanoma and with MDA-MB-231 breast was more than 100 µM each time. Moreover, the values for the TGI with MDA-MB-435, with OVCAR-8 ovarian and in the assay on SF-268 CNS were more than 100 µM, more than 52.8 µM and more than 100 µM, respectively.

Take `COc1ccc(N=C2C(=S)N(c3ccc(OC)cc3)/C(=N/S(=O)(=O)c3ccccc3)N2c2ccccc2)cc1`: the TGI was more than 48.8 µM in the assay on DU-145 prostate; 17.7 µM in the assay with HCT-116 colon; 23.5 µM in the assay with HCT-15 colon; 20.7 µM in the assay with HOP-92 NSCLC; 28.1 µM in the assay on IGROV1 ovarian; 36.2 µM in the assay on MALME-3M melanoma. In addition, the TGI in the assay with MDA-MB-231 breast was 10.6 µM; with MDA-MB-435, 20.6 µM; with OVCAR-8 ovarian, 5.47 µM; with SF-268 CNS, 29.2 µM.

As for `Cc1cc2c(nn1)-c1ccccc1C2=O`, the TGI with DU-145 prostate, with HCT-116 colon, in the assay with HCT-15 colon, in the assay on HOP-92 NSCLC, in the assay with IGROV1 ovarian and in the assay with MALME-3M melanoma was more than 10 µM throughout. For the same compound, the TGI with MDA-MB-231 breast, with MDA-MB-435, in the assay on OVCAR-8 ovarian and in the assay with SF-268 CNS was more than 10 µM each time.

In the case of `NS(=O)(=O)c1ccc(NC(NC(=O)C(C(F)(F)F)C(F)(F)F)(C(F)(F)F)C(F)(F)F)cc1`, the TGI with DU-145 prostate, with HCT-116 colon, with HCT-15 colon, in the assay with HOP-92 NSCLC, with IGROV1 ovarian and in the assay on MALME-3M melanoma was more than 100 µM in each case. Moreover, the TGI in the assay with MDA-MB-231 breast, with MDA-MB-435, with OVCAR-8 ovarian and in the assay with SF-268 CNS was more than 100 µM throughout.

As to `Cc1ccc(S(=O)(=O)NC(=O)NNc2ccc(F)cc2)cc1`, the TGI with DU-145 prostate, in the assay with HCT-116 colon, in the assay with HCT-15 colon, in the assay with HOP-92 NSCLC, in the assay on IGROV1 ovarian and with MALME-3M melanoma was more than 100 µM in each case. The TGI in the assay with MDA-MB-231 breast, in the assay with MDA-MB-435, in the assay with OVCAR-8 ovarian and with SF-268 CNS was more than 100 µM throughout.

Regarding `COc1cc(C=C2C(=O)NC(=S)NC2=O)cc(OC)c1OC`, the TGI in the assay with DU-145 prostate, in the assay with HCT-116 colon, in the assay on HCT-15 colon, in the assay with HOP-92 NSCLC, in the assay with IGROV1 ovarian and in the assay on MALME-3M melanoma was more than 100 µM in each case. Also, the TGI in the assay with MDA-MB-231 breast, with MDA-MB-435, with OVCAR-8 ovarian and in the assay on SF-268 CNS was more than 100 µM in each case.

Consider `CCCCN(CCCC)C(=C(C(Cl)=C(Cl)Cl)[N+](=O)[O-])N(CCCC)CCCC`, for which the TGI in the assay on DU-145 prostate, with HCT-116 colon, with HCT-15 colon, with HOP-92 NSCLC, with MALME-3M melanoma and in the assay with MDA-MB-231 breast was more than 100 µM each time. Further, the TGI with MDA-MB-435 and with SF-268 CNS was more than 100 µM in each case.

Take `COC(=O)C1=C(C)NC(C)=C([N+](=O)[O-])C1c1cccc(N=O)c1` (stereo unspecified): the TGI in the assay on DU-145 prostate came to 28.7 µM; with HCT-116 colon, 23 µM; with HCT-15 colon, 29.1 µM; with HOP-92 NSCLC it was 12.8 µM; in the assay on IGROV1 ovarian, 29.5 µM; in the assay on MALME-3M melanoma it was 25.2 µM. Besides, the TGI in the assay with MDA-MB-231 breast is 32.6 µM; with MDA-MB-435, 25.4 µM; with OVCAR-8 ovarian, 32.1 µM; in the assay with SF-268 CNS it was 32 µM.

Consider `O=c1n(Cc2ccccc2)c(=O)n2c(=O)n(Cc3ccccc3)c(=O)n12`, for which the TGI with DU-145 prostate, in the assay on HCT-116 colon, with HCT-15 colon, in the assay on HOP-92 NSCLC, with MALME-3M melanoma and in the assay on MDA-MB-231 breast was more than 100 µM in each case. In addition, the TGI in the assay on MDA-MB-435, in the assay on OVCAR-8 ovarian and in the assay on SF-268 CNS was more than 100 µM throughout.
